One experiment deals with Tlr4−/− MLECs. Nature of the experiment: Elastolytic activity in Tlr4−/− MLECs treated with DPI, NAC or apocynin. The format is cell-based, mouse. To be noted: DPI 10 μM, NAC 100 μM, apocynin 10 μM; 24 hours. The protocol: MLECs were isolated by as described by Kuhlencordt et al. (Kuhlencordt P. J., et al., 2004, Am. J. Physiol. Cell Physiol. 286:C1195C1202.), with some modifications. Briefly, lungs were extracted, minced, and digested for 1 hour at 37° C. with 0.1% collagenase (Roche Diagnostics) in RPMI-1640 with 100 U/ml penicillin G and 100 μg/ml streptomycin. The digest was passed through a 100-μm cell strainer to remove undigested tissue fragments. Cells were pelleted at 200 g for 5 minutes; resuspended in MLEC medium containing 20% FBS, 40% DMEM, and 40% F12 with 100 U/ml penicillin G and 100 μg/ml streptomycin; and plated onto 0.1% gelatin-coated T75 flasks. Cells were washed after 24 hours and cultured for 2-4 days. Cells were trypsinized with 2 ml trypsin/EDTA, PBS added, and spun for 5 minutes at 200 g to remove the supernatant. Cells were resuspended in 2% FBS containing 10 μl biotin-labeled rat anti-mouse CD31 (PECAM-1) antibody (BD Biosciences—Pharmingen). After incubation on ice for 30 minutes, the cells were washed with streptavidin magnetic beads (New England Biolabs Inc.). Cells were washed with 2% FBS, resuspended in 5 ml of 2% FBS, and incubated on ice for 30 minutes. The cells were then placed on the magnet for 5 minutes, and unbound cells were removed while bound cells were resuspended in medium and plated onto a 0.1% gelatin-coated T25 flask. CD31 staining and flow cytometry confirmed that greater than 95% of the cells were endothelial cells. […]
The elastolytic activities in lung tissues, BAL, and cell lysates was determined by hydrolysis of insoluble elastin and detected spectrophotometrically using elastin-Congo red as a substrate according to the method described previously (Rust L., et al., 1994, Methods Enzymol. 235:554-562). […] The optical density of the supernatant was measured at 485 nm with a DYNEX Revelation version 3.2 spectrophotometer. The elastolytic activity was calculated as ng elastase/μg protein in the lysates according to the standard curve established by the reaction of porcine elastase and elastin-Congo red.

Experiment [1] deals with Tlr4−/− mice. As to the kind of experiment: Total antioxidant capacity in BAL and serum of Tlr4−/− mice on antioxidant therapy. The format is in vivo, mouse. To be noted: NAC 1 g/kg or apocynin 3 mg/kg in drinking water from 3 weeks, sacrificed at 3 months; for total antioxidant content in serum: serum (data not shown). The text has this:
Tlr4^−/− and MyD88^−/− mice have been previously described (Zhang X., et al., 2005, J. Immunol. 175:4834-4838; Adachi O., et al., 1998, Immunity. 9:143-150; Hoshino K., et al., 1999, J. Immunol. 162:3749-3752). TLR4-deficient mouse lines C3H/HeJ and C57BL/10ScNJ and their respective controls were purchased from The Jackson Laboratory. C57BL/6J Tlr4^−/− mice were generated after greater than 10 generations of backcrossing onto a C57BL/6J background. WT littermates were used as controls. For antioxidant therapy, Tlr4^−/− mice were randomized into 3 groups at 3 weeks of age—NAC (1 g/kg body weight; Sigma-Aldrich) (apocynin (3 mg/kg body weight; Calbiochem; EMD Biosciences) (or vehicle-only drinking water—and then sacrificed at 3 months. Mice were maintained under specific pathogen-free conditions at the animal facility of Yale University School of Medicine. Animal protocols were reviewed and approved by the Animal Care and Use Committee at Yale University. Total antioxidant capacity was measured in cell-free BAL and serum using the Quantitative Assay for Total Antioxidant Potential kit (Oxis International Inc.) according to the manufacturer's instructions. […] Bathocuproine selectively forms a 2:1 complex with Cu^+, which has a maximum absorbance at 490 nm. A standard of a known uric acid concentration was used to create a calibration curve. Results are expressed as μM copper-reducing equivalents.

The subject of experiment [2] is Tlr4−/− mice. Nature of the experiment: Elastase inhibitory capacity (EIC) in Tlr4−/− mice on antioxidant therapy. The format is in vivo, mouse. To be noted: NAC 1 g/kg or apocynin 3 mg/kg in drinking water, BAL, 3 months. The source says: Tlr4^-/- and MyD88^-/- mice have been previously described (Zhang X., et al., 2005, J. Immunol. 175:4834-4838; Adachi O., et al., 1998, Immunity. 9:143-150; Hoshino K., et al., 1999, J. Immunol. 162:3749-3752). TLR4-deficient mouse lines C3H/HeJ and C57BL/10ScNJ and their respective controls were purchased from The Jackson Laboratory. C57BL/6J Tlr4^-/- mice were generated after greater than 10 generations of backcrossing onto a C57BL/6J background. WT littermates were used as controls. For antioxidant therapy, Tlr4^-/- mice were randomized into 3 groups at 3 weeks of age-NAC (1 g/kg body weight; Sigma-Aldrich) (apocynin (3 mg/kg body weight; Calbiochem; EMD Biosciences) (or vehicle-only drinking water-and then sacrificed at 3 months. Mice were maintained under specific pathogen-free conditions at the animal facility of Yale University School of Medicine. Animal protocols were reviewed and approved by the Animal Care and Use Committee at Yale University. EIC was assessed in BAL and serum using previously described methods (Klumpp T. et al., 1979, Clin. Chem. 25:969-97; […]., et al., 2001, Am. J. Respir. Crit. Care Med. 164:886-890). […] EICs against PPE (type III; Sigma-Aldrich) in BAL and serum were determined using succinyl-[…]-nitroanilide (SAPNA; Sigma-Aldrich) as the elastase substrate. EIC was expressed as percentage of enzyme activity inhibited by serum or BAL samples. […]

The subject of experiment [3] is Tlr4−/− mice. As to the kind of experiment: Reduced GSH/oxidized GSH in BAL of Tlr4−/− mice on antioxidant therapy. As to conditions: NAC 1 g/kg or apocynin 3 mg/kg in drinking water, 3 months. The class given is in vivo, mouse. The text has this:
(§1) Tlr4^−/− and MyD88^−/− mice have been previously described (Zhang X., et al., 2005, J. Immunol. 175:4834-4838; Adachi O., et al., 1998, Immunity. 9:143-150; Hoshino K., et al., 1999, J. Immunol. 162:3749-3752). TLR4-deficient mouse lines C3H/HeJ and C57BL/10ScNJ and their respective controls were purchased from The Jackson Laboratory. C57BL/6J Tlr4^−/− mice were generated after greater than 10 generations of backcrossing onto a C57BL/6J background. WT littermates were used as controls. For antioxidant therapy, Tlr4^−/− mice were randomized into 3 groups at 3 weeks of age—NAC (1 g/kg body weight; Sigma-Aldrich) (apocynin (3 mg/kg body weight; Calbiochem; EMD Biosciences) (or vehicle-only drinking water—and then sacrificed at 3 months. Mice were maintained under specific pathogen-free conditions at the animal facility of Yale University School of Medicine. Animal protocols were reviewed and approved by the Animal Care and Use Committee at Yale University. The ratio of reduced GSH to oxidized GSH was measured in cell-free BAL using GSH/GSSG-412 kit (Oxis International Inc.) according to the manufacturer's instructions.

For experiment [4], the system named is Tlr4−/− mice. As to the kind of experiment: Emphysema (lung volume, chord length, histology) in Tlr4−/− mice on antioxidant therapy. The format is in vivo, mouse. To be noted: NAC 1 g/kg or apocynin 3 mg/kg in drinking water from 3 weeks, sacrificed at 3 months.
Text: as §1, with “University. Mice were anesthetized, the trachea was cannulated, and the lungs were removed and inflated with PBS at 25 cm H2O.” for “University.”, “The size” for “The ratio”, “of the lung” for “of reduced GSH to oxidized GSH”, “was evaluated by volume displacement. Hematoxylin and eosin (H&E) or periodic acid-Schiff with diastase (PAS) staining was performed after pressure fixation with Streck solution (Streck Laboratories)” for “was measured”, “in” for “in cell-free BAL using GSH/GSSG-412 kit (Oxis International Inc.) according to”, “the Research Pathology Laboratory at Yale University. […]” for “the manufacturer's instructions.”

For experiment [5], the system named is elastase- and cigarette smoke-induced emphysema. To be noted: aerosolized; cited from earlier work.

`c1ccc2c(c1)[I+]c1ccccc1-2` [DPI, diphenylene iodonium]: in the experiment on Tlr4−/− MLECs, the “elastolytic activity in Tlr4−/− MLECs” value is recorded as “reversed to levels achieved by the broad-acting antioxidant NAC”.
Turning to `CC(=O)N[C@@H](CS)C(=O)O` [NAC], in the experiment on Tlr4−/− mice [1], the “total antioxidant content in BAL” value is “increased the total antioxidant content in BAL” and the “total antioxidant content in serum” value is “increased the total antioxidant content”. Further, the EIC result with Tlr4−/− mice [2] is reported as “an increase in the EIC”. Further, the “GSH levels (reduced GSH/oxidized GSH ratio)” value with Tlr4−/− mice [3] is listed as “increased GSH levels”. The “TLR4-mediated emphysema (lung volume, mean linear chord length, histology)” value in the experiment with Tlr4−/− mice [4] is reported as “prevented TLR4-mediated emphysema”. The “elastolytic activity in Tlr4−/− MLECs” value in the experiment with Tlr4−/− MLECs is reported as “reversed”.
In the case of `COc1cc(C(C)=O)ccc1O` [apocynin], in the experiment on Tlr4−/− mice [1], the “total antioxidant content in BAL” value is listed as “increased the total antioxidant content in BAL” and the “total antioxidant content in serum” value is “increased the total antioxidant content”. Besides, the EIC entry in the experiment on Tlr4−/− mice [2] is listed as “an increase in the EIC”. Also, in the experiment on Tlr4−/− mice [3], the “GSH levels (reduced GSH/oxidized GSH ratio)” value was “increased GSH levels”. For the same molecule, the “TLR4-mediated emphysema (lung volume, mean linear chord length, histology)” value in the experiment with Tlr4−/− mice [4] is on record as “prevented TLR4-mediated emphysema”. In the experiment on Tlr4−/− MLECs, the “elastolytic activity in Tlr4−/− MLECs” value was “reversed to levels achieved by the broad-acting antioxidant NAC”.
Turning to Hyaluronan [HA], in experiment [5], the protection against emphysema entry is “protects against elastase- and cigarette smoke-induced emphysema”.

Source of the values: patent US20100086546A1, “Toll-LIke Receptor 4 Deficiency and Downstream Effectors Cause Pulmonary Emphysema” (Yale University, priority 2007, published 2010).
